We go through 13 compounds from patent US20250129070A1, “BIFUNCTIONAL ANDROGEN RECEPTOR COMPOUNDS” (priority 2023, published 2025).

Broadly, the EC50 is the concentration giving half of the maximal effect. Higher therefore signals a need for much substance.

This test has as its system AR / CBP ternary complex. In words: Ternary complex formation assay (sandwich ELISA, AR capture / CBP detection) in VCaP cell lysates. Format: cell-based. The note with it: 1.5 hours treatment, sandwich ELISA (AR capture, CBP or p300 detection). The procedure: Preparation of Mouse Anti-AR Antibody Coated 96 Well Plates
Black MaxiSorp plates: coat with 50 μL of mouse 1/50 diluted AR antibody (Monoclonal Antibody (AR 441 from Thermo Fisher); diluted in phosphate buffered saline (PBS). Spin the liquid to the bottom of the wells, if necessary. Incubate overnight at 4° C. Next day, wash 3 times with 200 μL of TBST. Block with 200 μL of blocking buffer (5% BSA in TBST) at room temperature for 2 hours (BSA: A4503 or A2153 from Sigma). Wash plates 3 times with TBST. Plates are ready for lysates Preparation of dimerizer treated lysates
Culture cells in 96 wells at 50K VCaP cells/well for at least 3 days. Plate in 5% Omega charcoal stripped FBS in total volume of 200 uL. Treat with bifunctional for 1.5 hours by adding 1 μL of 200× stock in DMSO. Aspirate media/compound. Add and pipet-to-mix 70 μL of 1× AlphaLisa Lysis Buffer to each well (Perkin Elmer, AlphaLISA SureFire Ultra, diluted in water). Pipet up and down when adding lysis buffer to disrupt cells. Let lysis proceed for 30 min at 4° C.
Incubate for 1 hour at room temperature. Flick out the lysates. Wash 3 times with TBST. Add 75 μL of rabbit CBP or p300 antibody to each well (diluted 1:5000 in blocking buffer (5% BSA in TBST). CBP antibody: (D6C5) Rabbit mAb #7389; p300 antibody: (D8Z4E) Rabbit mAb #86377. Incubate overnight at 4° C. Wash 3 times with 300 uL TBST, each time on shaker for 5-10 min. Prepare goat anti-rabbit antibody conjugated to HRP (1/100K dilution in blocking buffer) Invitrogen Catalog number: 32260. Add 75 μL of HRP-conjugated goat anti-rabbit antibody. Incubate at room temperature for 1 hour. Flick out the HRP-antibody mixture. Wash 7-8 times with TBST, each time on shaker for 10 min. Later washes try to overflow the wells so that no residual HRP remains bound to the sides of the well. Prepare and add 75 uL/well of QuantaRed Enhance Chemifluorescent HRP Substrate solution. Immediately read fluorescence on BMG ClarioStar (ex: 570/em 585), and repeat the read in 5 minutes and 15 minutes.
On to `COc1cc(OC2C(C)(C)C(NC(=O)c3ccc(N4CCC[C@@H](N5CCC(n6nc(N7CCCc8cc(-c9cnn(C)c9)c(C(F)F)cc87)c7c6CCN(C(C)=O)C7)CC5)C4)cc3)C2(C)C)ccc1C#N` (stereo partly drawn) [Compound 400, 4-[(3R)-3-[4-[5-acetyl-3-[7-(difluoromethyl)-6-(1-methylpyrazol-4-yl)-3,4-dihydro-2H-quinolin-1-yl]-6,7-dihydro-4H-pyrazolo[4,3-c]pyridin-1-yl]-1-piperidyl]-1-piperidyl]-N-[3-(4-cyano-3-methoxy-phenoxy)-2,2,4,4-tetramethyl-cyclobutyl]benzamide], for which the EC50 was less than 1 nM.
In the case of `COc1cc(OC2C(C)(C)C(NC(=O)c3ccc(N4CCC5(CC4)CC(Oc4ccc(-c6cc7c(cc6C(F)F)N(c6nn(C8CCOCC8)c8c6CN(C(C)=O)CC8)CCC7)cc4)C5)cc3)C2(C)C)ccc1C#N` (stereo not shown) [Compound 307, 4-[2-[4-[1-(5-acetyl-1-tetrahydropyran-4-yl-6,7-dihydro-4H-pyrazolo[4,3-c]pyridin-3-yl)-7-(difluoromethyl)-3,4-dihydro-2H-quinolin-6-yl]phenoxy]-7-azaspiro[3.5]nonan-7-yl]-N-[3-(4-cyano-3-methoxy-phenoxy)-2,2,4,4-tetramethyl-cyclobutyl]benzamide] it was 1 to 10 nM; in that of `CC(=O)N1CCc2c(c(N3CCCc4cc(-c5cnn(C)c5)c(C(F)F)cc43)nn2C2CCC(N(C)C3CCN(c4ncc(C(=O)NC5C(C)(C)C(Oc6ccc(C#N)c(Cl)c6)C5(C)C)cn4)CC3)CC2)C1` (stereo not shown) [Compound 282, 2-[4-[[4-[5-acetyl-3-[7-(difluoromethyl)-6-(1-methylpyrazol-4-yl)-3,4-dihydro-2H-quinolin-1-yl]-6,7-dihydro-4H-pyrazolo[4,3-c]pyridin-1-yl]cyclohexyl]-methyl-amino]-1-piperidyl]-N-[3-(3-chloro-4-cyano-phenoxy)-2,2,4,4-tetramethyl-cyclobutyl]pyrimidine-5-carboxamide], less than 1 nM.
`CC(=O)N1CCc2c(c(N3CCCc4cc(-c5cnn(C)c5)c(C(F)F)cc43)nn2C2CN(CCC3CCN(c4ncc(C(=O)NC5C(C)(C)C(Oc6ccc(C#N)c(Cl)c6)C5(C)C)cn4)CC3)C2)C1` (stereo not shown) [Compound 162, 2-[4-[2-[3-[5-acetyl-3-[7-(difluoromethyl)-6-(1-methylpyrazol-4-yl)-3,4-dihydro-2H-quinolin-1-yl]-6,7-dihydro-4H-pyrazolo[4,3-c]pyridin-1-yl]azetidin-1-yl]ethyl]-1-piperidyl]-N-[3-(3-chloro-4-cyano-phenoxy)-2,2,4,4-tetramethyl-cyclobutyl]pyrimidine-5-carboxamide] registered a concentration for a half-maximal effect (EC50) of less than 1 nM.
As for `CC(=O)N1CCc2c(c(N3CCCc4cc(-c5cnn(C)c5)c(C(F)F)cc43)nn2C2CCN(CC3CCN(c4ccc(C(=O)NC5C(C)(C)C(Oc6ccc(C#N)c(Cl)c6)C5(C)C)nn4)CC3)CC2)C1` (stereo not shown) [Compound 117, 6-[4-[[4-[5-acetyl-3-[7-(difluoromethyl)-6-(1-methylpyrazol-4-yl)-3,4-dihydro-2H-quinolin-1-yl]-6,7-dihydro-4H-pyrazolo[4,3-c]pyridin-1-yl]-1-piperidyl]methyl]-1-piperidyl]-N-[3-(3-chloro-4-cyano-phenoxy)-2,2,4,4-tetramethyl-cyclobutyl]pyridazine-3-carboxamide], the EC50 fell in the range of 1 to 10 nM.
As for `CC(=O)N1CCc2c(c(-c3cccc4cc(-c5cnn(C)c5)ncc34)nn2C2CCN(CC3C(C)CN(c4ncc(C(=O)NC5C(C)(C)C(Oc6ccc(C#N)c(Cl)c6)C5(C)C)cn4)CC3C)CC2)C1` (stereo not shown) [Compound 440, 2-[4-[[4-[5-acetyl-3-[3-(1-methylpyrazol-4-yl)-8-isoquinolyl]-6,7-dihydro-4H-pyrazolo[4,3-c]pyridin-1-yl]-1-piperidyl]methyl]-3,5-dimethyl-1-piperidyl]-N-[3-(3-chloro-4-cyano-phenoxy)-2,2,4,4-tetramethyl-cyclobutyl]pyrimidine-5-carboxamide], the figure is less than 1 nM; as for `COc1cc(OC2C(C)(C)C(NC(=O)c3ccc(N4CCC5(CCC(n6nc(N7CCCc8cc(-c9cnn(C)c9)c(C(F)F)cc87)c7c6CCN(C(C)=O)C7)CC5)C4)cc3)C2(C)C)ccc1C#N` (stereo not shown) [Compound 405, 4-[8-[5-acetyl-3-[7-(difluoromethyl)-6-(1-methylpyrazol-4-yl)-3,4-dihydro-2H-quinolin-1-yl]-6,7-dihydro-4H-pyrazolo[4,3-c]pyridin-1-yl]-2-azaspiro[4.5]decan-2-yl]-N-[3-(4-cyano-3-methoxy-phenoxy)-2,2,4,4-tetramethyl-cyclobutyl]benzamide], 10 to 100 nM; as for `CNC(=O)N1CCc2c(c(N3CCCc4cc(-c5cnn(C)c5)c(C(F)F)cc43)nn2C2CCN(CCOCc3ncc(C(=O)NC4C(C)(C)C(Oc5ccc(C#N)c(Cl)c5)C4(C)C)cn3)CC2)C1` (stereo not shown) [Compound 86, 1-[1-[2-[[5-[[3-(3-chloro-4-cyano-phenoxy)-2,2,4,4-tetramethyl-cyclobutyl]carbamoyl]pyrimidin-2-yl]methoxy]ethyl]-4-piperidyl]-3-[7-(difluoromethyl)-6-(1-methylpyrazol-4-yl)-3,4-dihydro-2H-quinolin-1-yl]-N-methyl-6,7-dihydro-4H-pyrazolo[4,3-c]pyridine-5-carboxamide], more than 100 nM.
As for `CC(=O)N1CCc2c(c(N3CCCc4cc(-c5cnn(C)c5)c(C(F)F)cc43)nn2C2CCN(C3CC(C#Cc4ncc(C(=O)NC5C(C)(C)C(Oc6ccc(C#N)c(Cl)c6)C5(C)C)cn4)C3)CC2)C1` (stereo not shown) [Compound 295, 2-[2-[3-[4-[5-acetyl-3-[7-(difluoromethyl)-6-(1-methylpyrazol-4-yl)-3,4-dihydro-2H-quinolin-1-yl]-6,7-dihydro-4H-pyrazolo[4,3-c]pyridin-1-yl]-1-piperidyl]cyclobutyl]ethynyl]-N-[3-(3-chloro-4-cyano-phenoxy)-2,2,4,4-tetramethyl-cyclobutyl]pyrimidine-5-carboxamide], the figure is less than 1 nM; as for `CC(=O)N1CCc2c(c(N3CCCc4cc(-c5cncs5)c(C(F)F)cc43)nn2C2CCN(CC3C(C)CN(c4ncc(C(=O)NC5C(C)(C)C(Oc6ccc(C#N)c(Cl)c6)C5(C)C)cn4)CC3C)CC2)C1` (stereo not shown) [Compound 422, 2-[4-[[4-[5-acetyl-3-[7-(difluoromethyl)-6-thiazol-5-yl-3,4-dihydro-2H-quinolin-1-yl]-6,7-dihydro-4H-pyrazolo[4,3-c]pyridin-1-yl]-1-piperidyl]methyl]-3,5-dimethyl-1-piperidyl]-N-[3-(3-chloro-4-cyano-phenoxy)-2,2,4,4-tetramethyl-cyclobutyl]pyrimidine-5-carboxamide], less than 1 nM; as for `COc1cc(OC2C(C)(C)C(NC(=O)c3cnc(N4CC5(CCC(N6CCC(n7nc(N8CCCc9cc(-c%10cnn(C)c%10)c(C)cc98)c8c7CCN(C(C)=O)C8)CC6)CC5)C4)nc3)C2(C)C)ccc1C#N` (stereo not shown) [Compound 469, 2-[7-[4-[5-acetyl-3-[7-methyl-6-(1-methylpyrazol-4-yl)-3,4-dihydro-2H-quinolin-1-yl]-6,7-dihydro-4H-pyrazolo[4,3-c]pyridin-1-yl]-1-piperidyl]-2-azaspiro [3.5]nonan-2-yl]-N-[3-(4-cyano-3-methoxy-phenoxy)-2,2,4,4-tetramethyl-cyclobutyl]pyrimidine-5-carboxamide], less than 1 nM.
In the case of `CC(=O)N1CCc2c(c(N3CCCc4cnccc43)nn2C2CCN(CC3CCN(c4ncc(C(=O)NC5C(C)(C)C(Oc6ccc(C#N)c(Cl)c6)C5(C)C)cn4)CC3)CC2)C1` (stereo not shown) [Compound 157, 2-[4-[[4-[5-acetyl-3-(3,4-dihydro-2H-1,6-naphthyridin-1-yl)-6,7-dihydro-4H-pyrazolo[4,3-c]pyridin-1-yl]-1-piperidyl]methyl]-1-piperidyl]-N-[3-(3-chloro-4-cyano-phenoxy)-2,2,4,4-tetramethyl-cyclobutyl]pyrimidine-5-carboxamide] it was less than 1 nM; in that of `COc1cc(OC2C(C)(C)C(NC(=O)c3ccc(N4CCC(C5CCC(n6nc(N7CCCc8cc(-c9cnn(C)c9)c(C(F)F)cc87)c7c6CCN(C(C)=O)C7)CC5)CC4)cc3)C2(C)C)ccc1C#N` (stereo not shown) [Compound 258, 4-[4-[4-[5-acetyl-3-[7-(difluoromethyl)-6-(1-methylpyrazol-4-yl)-3,4-dihydro-2H-quinolin-1-yl]-6,7-dihydro-4H-pyrazolo[4,3-c]pyridin-1-yl]cyclohexyl]-1-piperidyl]-N-[3-(4-cyano-3-methoxy-phenoxy)-2,2,4,4-tetramethyl-cyclobutyl]benzamide], 1 to 10 nM.
